# Where a SMILES comes first, the peptide text is derived from it. The star is where a group is joined. Arachidoyl = CCCCCCCCCCCCCCCCCCCC(=O)*; Stearoyl = CCCCCCCCCCCCCCCCCC(=O)*; Palmitoyl = CCCCCCCCCCCCCCCC(=O)*; Myristoyl = CCCCCCCCCCCCCC(=O)*; Lauroyl = CCCCCCCCCCCC(=O)*
# How the values were obtained:
# [1] = RP-HPLC retention time as measure of hydrophobicity; format: physicochemical; conditions: chromatographic, Vydac C18 300 Å 4.6 × 250 mm, 1.0 mL/min, gradient 30-100% acetonitrile/0.1% TFA, 215 nm, column 25 ± 5 °C; maximum height of peak
# Experimental: Peptides were synthesized using the Fmoc SPPS methods. Briefly, the peptide LVTX-9 (AC-[…]-amide) was prepared on Rink Amide AM resin at a 0.2 mmol scale. A 4-fold excess of the Fmoc-protected amino acids was coupled with the Rink Amide AM resin using HCTU and HOBT as the activating agents in 5% NMM/DMF. After the synthesis of LVTX-9, the N-terminal Fmoc group was removed using 20% piperidine. As in the previous steps, a series of fatty acids (C12-C20) was activated in HCTU and HOBT using 5% NMM/DMF, and coupled to peptidyl resin for 2 h. Peptides were cleaved using trifluoroacetic acid (TFA)/thioanisole (TIS)/anisole (95:3:2 (v/v)) for 2.5 h, and the collected lysate was precipitated in cold diethyl ether three times. The precipitate was air-dried naturally. Next, the obtained crude products were purified using RP-HPLC (C18, 4.6 mm × 250 mm) on the basis of a 0.1% TFA/acetonitrile gradient from 30% to 100% in 46 min. Then, we collected the eluted peptides and determined the molecular mass using MALDI-TOF MS (AB, SCIEX, Waltham, MA, USA).
# Figure 2 Purification and identification of five lipopeptides using RP-HPLC and MALDL-TOF MS: The purification of (A) LVTX-9-C12, (B) LVTX-9-C14, (C) LVTX-9-C16, (D) LVTX-9-C18, and (E) LVTX-9-C20 was performed using RP-HPLC (column, Vydac, C18, 300 Å, 4.6 × 250 mm). The lipopeptides were separated at a flow rate of 1.0 mL/min under a gradient of 30–100% acetonitrile/0.1% TFA. The elution of lipopeptides was monitored at 215 nm. Identification of (F) LVTX-9-C12, (G) LVTX-9-C14, (H) LVTX-9-C16, (I) LVTX-9-C18, and (J) LVTX-9-C20 by MALDI-TOF MS, respectively. The red star (*) represents the target peak. […]
# Table S1. Purification gradient of peptides.
# Time (min) Flow Rate (mL/min) A% B%
# Wavelength: 215 nm/280 nm, column temperature: 25 ± 5 ℃, A: ddH2O (0.1% TFA), B: acetonitrile
# (1 picture or pasted object on this page, not shown here)
# B16-F10 cells [2] = assay: CCK-8 cell viability assay, B16-F10 cells; format: cell-based, mouse; conditions: 1 μM
# Experimental: Mouse skin melanoma cells (B16-F10) were cultured in RPMI-1640 (Gibco), and mouse fibroblast cells (L-929), human lung carcinoma cells (A549), mouse breast cells (4T1), human hepatocarcinoma cells (HepG2), and human cervical carcinoma cells (Hela) were cultured in Dulbecco’s Modified Eagle Medium (DMEM, Gibco). All culture medium contained 10% fetal bovine serum (serum, Gibco), 100 U/mL of penicillin, and […] of streptomycin at 37 °C with 5% CO2.
# Cell viability was quantified using a CCK-8 assay. At first, cells were seeded into a 96-well plate at approximately 2 × 10^3 cells/well. The following day, we created a 2-fold dilution series of each peptide using fresh medium (with or without 10% serum) for the treated cells, and cell viability was detected at 450 nm via a CCK-8 assay using an Absorbance Microplate Reader (BioTek Instruments, Winooski, VT, USA) following 24 h of drug incubation. The activity curves and IC50 values of the peptides were visualized using GraphPad prism 5.0.
# B16-F10 cells [3] = assay: LDH leakage assay; format: cell-based, mouse; conditions: 12.5 μM, 24 h, absorbance 490 nm, n = 3
# Experimental: At first, the B16-F10 cells were cultured in 96-well plates for 24 h at approximately 2 × 10^3 cells/well. Subsequently, the cells were treated for 24 h with LVTX-9 or LVTX-9-C18 with a series of concentration gradients. LDH leakage detection was detected using an LDH Cytotoxicity Assay Kit according to the manufacturer’s instructions (Beyotime, Shanghai, China. C0017). The absorption was measured using an Absorbance Microplate Reader (BioTek Instruments) at 490 nm. The LDH release (%) of peptides was calculated by GraphPad prism 5.0.
# B16-F10 cells [4] = assay: Colony formation assay; format: cell-based, mouse; conditions: 1 μM, 7 days, crystal violet, mean ± SD, n = 3, control group 51 ± 12.0, p = 0.0198 vs control
# Experimental: To detect the proliferation of B16-F10 cells treated with LVTX-9 and LVTX-9-C18 at low concentrations, digested cells were counted using a Cellometer K2 and seeded into a 12-well plate with approximately 100 cells per well. After 36 h, cells were treated with LVTX-9 (10 μM) and LVTX-9-C18 (1 μM), then incubated for 7 days at 37 °C in a humidified 5% CO2 atmosphere. Visible colonies were stained with 0.5% crystal violet and photographically recorded. The colony formation rates were calculated, and curves were manufactured by GraphPad prism 5.0.
# B16-F10 cells [5] = assay: Scanning electron microscopy of cell membrane; format: cell-based, mouse; conditions: 5 μM, 24 h
# Experimental: The morphologic changes of the cell membrane of B16-F10 cells treated with peptides were observed by SEM [14]. The cells were seeded on coverslips and placed into a six-well plate, then treated with LVTX-9 (50 μM) and LVTX-9-C18 (5 μM) for 24 h. After incubation, the B16-F10 cells were washed with sterile PBS gently three times and fixed with 2 mL of 2.5% glutaraldehyde solution in each well for 4 h at room temperature. Then, the fixed cells were dehydrated with a series of ethanol concentrations. We dried the samples with a Critical Point Dryer and coated them with gold plating before observation. A scanning electron microscope (Hitachi Su8010, Tokyo, Japan) was used to examine the prepared samples.
# B16-F10 cells [6] = assay: Trypan blue staining; format: cell-based, mouse; conditions: 5 μM, 24 h, 0.04% trypan blue 4 min
# Experimental: B16-F10 cells were seeded into a 48-well plate (2 × 10^3 cells/well) for 24 h and treated with LVTX-9 (50 μM) and LVTX-9-C18 (5 μM) for 24 h. The cells were washed with PBS gently and stained with 0.04% Trypan blue for 4 min. Dead cells were stained blue.
# [7] = Dynamic light scattering (hydrodynamic size, PDI, zeta potential); format: physicochemical; conditions: 100 µM in ultrapure water, 25 °C, repeated three times
# Experimental: (§1) Dynamic light scattering (DLS) of Zetasizer Nano ZSP (Malvern Instruments, Malvern, UK) apparatus was used to determine the hydrodynamic size and zeta potential of LVTX-9 and LVTX-9-C18. The peptides concentrations were diluted to 100 µM with ultrapure water with a final volume of 1 mL. The procedure ran at 25 °C, with each experiment repeated three times. The secondary structures of LVTX-9 and LVTX-9-C18 were determined to be in line with the previous protocol. The peptide concentrations were then diluted to 100 µM with ultrapure water and 100 mM of SDS was added in a final volume of 250 μL. The procedure was carried out at 25 °C. CD spectra were recorded between 180 nm and 280 nm on a Jasco J-815 CD spectrometer.
# [8] = Circular dichroism secondary structure; format: physicochemical; conditions: 100 µM, 25 °C, 180-280 nm
# Experimental: as §1
# B16-F10 tumor spheroids = assay: Toxicity in 3D tumor spheroids; format: cell-based, mouse; conditions: 20 μM, 3 days
# Experimental: To further study the toxicity of LVTX-9 and LVTX-9-C18 in vitro, B16-F10 tumor spheroids, as 3D tumor models, were cultured according to protocols in the literature. Briefly, B16-F10 cells were seeded into an ultra-low attachment, 96-well, round-bottom plate (Corning) and cultured at 37 °C for 3–4 days. Then, the B16-F10 tumor spheroids were treated with 50 or 25 μM of LVTX-9 and 20 or 10 μM of LVTX-9-C18 in the RPMI-1640 supplied with 10% serum for 3 days. Subsequently, images were taken on days 0 and 3, and the cell viability was measured using a CellTiter-Glo 3D Cell Viability Assay (G9683).
smiles,measurement,setting,value
CCCCCCCCCCCCCC(=O)N[C@@H](C)C(=O)N[C@@H](CO)C(=O)N[C@H](C(=O)NCC(=O)N[C@@H](C)C(=O)N[C@@H](CC(C)C)C(=O)N[C@H](C(=O)N[C@@H](CCC(N)=O)C(=O)N[C@@H](CCCCN)C(=O)N[C@@H](C)C(=O)N[C@H](C(=O)N[C@@H](C)C(=O)N[C@@H](CC(C)C)C(=O)N[C@H](C(=O)N[C@@H](CCCCN)C(=O)N[C@@H](C)C(=O)N[C@@H](CCCCN)C(=O)N[C@@H](C)C(=O)N[C@@H](C)C(N)=O)[C@@H](C)CC)[C@@H](C)CC)[C@@H](C)CC)[C@@H](C)CC [LVTX-9-C14] (Myristoyl-ASIGALIQKAIALIKAKAA-NH2),"TR (retention time, RP-HPLC; indicates the hydrophobicity of the peptides)",[1],36.15 min
CCCCCCCCCCCC(=O)N[C@@H](C)C(=O)N[C@@H](CO)C(=O)N[C@H](C(=O)NCC(=O)N[C@@H](C)C(=O)N[C@@H](CC(C)C)C(=O)N[C@H](C(=O)N[C@@H](CCC(N)=O)C(=O)N[C@@H](CCCCN)C(=O)N[C@@H](C)C(=O)N[C@H](C(=O)N[C@@H](C)C(=O)N[C@@H](CC(C)C)C(=O)N[C@H](C(=O)N[C@@H](CCCCN)C(=O)N[C@@H](C)C(=O)N[C@@H](CCCCN)C(=O)N[C@@H](C)C(=O)N[C@@H](C)C(N)=O)[C@@H](C)CC)[C@@H](C)CC)[C@@H](C)CC)[C@@H](C)CC [LVTX-9-C12] (Lauroyl-ASIGALIQKAIALIKAKAA-NH2),"TR (retention time, RP-HPLC; indicates the hydrophobicity of the peptides)",[1],36.52 min
CCCCCCCCCCCCCCCCCC(=O)N[C@@H](C)C(=O)N[C@@H](CO)C(=O)N[C@H](C(=O)NCC(=O)N[C@@H](C)C(=O)N[C@@H](CC(C)C)C(=O)N[C@H](C(=O)N[C@@H](CCC(N)=O)C(=O)N[C@@H](CCCCN)C(=O)N[C@@H](C)C(=O)N[C@H](C(=O)N[C@@H](C)C(=O)N[C@@H](CC(C)C)C(=O)N[C@H](C(=O)N[C@@H](CCCCN)C(=O)N[C@@H](C)C(=O)N[C@@H](CCCCN)C(=O)N[C@@H](C)C(=O)N[C@@H](C)C(N)=O)[C@@H](C)CC)[C@@H](C)CC)[C@@H](C)CC)[C@@H](C)CC [LVTX-9-C18] (Stearoyl-ASIGALIQKAIALIKAKAA-NH2),cytotoxic effect on B16-F10 cells at 1 μM,B16-F10 cells [2],no significant cytotoxic effect
same,LDH release at 12.5 μM,B16-F10 cells [3],~ 40%
same,colony number at 1 μM,B16-F10 cells [4],26 ± 2.9
same,cell membrane morphology by SEM at 5 μM,B16-F10 cells [5],totally disorganized or even absent
same,trypan blue staining at 5 μM,B16-F10 cells [6],stained blue
same,"PDI (hydrodynamic size, DLS)",[7],0.64 ± 0.1369
same,zeta potential,[7]; p = 0.0084,significantly higher than that of LVTX-9
same,secondary structure (CD) in 100 mM of SDS,[8]; 100 mM SDS,α-helical conformation
same,secondary structure (CD) in ultrapure water,[8]; ultrapure water,α-helical conformation
same,"TR (retention time, RP-HPLC; indicates the hydrophobicity of the peptides)",[1],41.89 min
same,cell viability of B16-F10 tumor spheroids at 20 μM,"B16-F10 tumor spheroids; CellTiter-Glo 3D Cell Viability Assay, n = 4, p < 0.0001",notably reduced the cell viability
same,growth (volume) of B16-F10 tumor spheroids at 20 μM,"B16-F10 tumor spheroids; RPMI-1640 with 10% serum, p = 0.0072",significantly suppressed
CCCCCCCCCCCCCCCCCCCC(=O)N[C@@H](C)C(=O)N[C@@H](CO)C(=O)N[C@H](C(=O)NCC(=O)N[C@@H](C)C(=O)N[C@@H](CC(C)C)C(=O)N[C@H](C(=O)N[C@@H](CCC(N)=O)C(=O)N[C@@H](CCCCN)C(=O)N[C@@H](C)C(=O)N[C@H](C(=O)N[C@@H](C)C(=O)N[C@@H](CC(C)C)C(=O)N[C@H](C(=O)N[C@@H](CCCCN)C(=O)N[C@@H](C)C(=O)N[C@@H](CCCCN)C(=O)N[C@@H](C)C(=O)N[C@@H](C)C(N)=O)[C@@H](C)CC)[C@@H](C)CC)[C@@H](C)CC)[C@@H](C)CC [LVTX-9-C20] (Arachidoyl-ASIGALIQKAIALIKAKAA-NH2),"TR (retention time, RP-HPLC; indicates the hydrophobicity of the peptides)",[1],43.06 min
CCCCCCCCCCCCCCCC(=O)N[C@@H](C)C(=O)N[C@@H](CO)C(=O)N[C@H](C(=O)NCC(=O)N[C@@H](C)C(=O)N[C@@H](CC(C)C)C(=O)N[C@H](C(=O)N[C@@H](CCC(N)=O)C(=O)N[C@@H](CCCCN)C(=O)N[C@@H](C)C(=O)N[C@H](C(=O)N[C@@H](C)C(=O)N[C@@H](CC(C)C)C(=O)N[C@H](C(=O)N[C@@H](CCCCN)C(=O)N[C@@H](C)C(=O)N[C@@H](CCCCN)C(=O)N[C@@H](C)C(=O)N[C@@H](C)C(N)=O)[C@@H](C)CC)[C@@H](C)CC)[C@@H](C)CC)[C@@H](C)CC [LVTX-9-C16] (Palmitoyl-ASIGALIQKAIALIKAKAA-NH2),"TR (retention time, RP-HPLC; indicates the hydrophobicity of the peptides)",[1],40.21 min
